From patent EP4458977A1, “SELF-ASSEMBLING PEPTIDE AMPHIPHILES AS RETROVIRAL TRANSDUCTION ENHANCERS” (Max-Planck-Gesellschaft zur Förderung der Wissenschaften …, priority 2023, dated 2024) come the findings set out here.

Where a SMILES comes first, the peptide text is derived from it. Where no end group is shown, it is not given here. The star is where a group is joined. Palmitoyl = CCCCCCCCCCCCCCCC(=O)*

Data set [1] is described as follows: ATR-FT-IR determination of β-sheet content. The class given is physicochemical. The note with it: 1 mg/mL in PBS lyophilized; integral at 1630 cm^-1 relative to 1650-1700 cm^-1. How it is done: ATR-FT-IR: ATR-IR spectra acquisition and the calculation of β-sheet content were conducted according prior art procedures. Briefly, FT-IR spectra of solid samples were recorded after lyophilization of fibril solutions using a Bruker Tensor II spectrometer equipped with a diamond crystal as ATR element with a spectral resolution of 2 cm^-1, each spectrum was an average of 64 scans. The data was processed with Origin software. β-sheet amount was determined by calculating the integral of the peak at 1630 cm-1 (β-sheet) relative to the integral between 1650-1700 cm-1 (native structure) from the 2nd derivative of the FT-IR spectra.

The nature of data set [2]: TEM of peptide assemblies (fibril formation / assembly). The class given is physicochemical. The note with it: for TEM morphology (in words): 1 mg/mL in PBS. As for the experimental part:
The peptides were predissolved in DMSO to a concentration of 10 mg/mL. The fibril formation was induced by further diluting the solution to a final incubation concentration of 650 µM or 1 mg/mL in PBS as indicated in the text and incubated for 1 d (1 day) at rt (room temperature, 20 °C - 25 °C). Other concentrations as described herein were achieved by further dilution of preformed fibrils.
(§1) Transmission electron microscopy (TEM) measurements, Thioflavin (ThT), zeta-potential measurements for fibril characterization were prepared and conducted according to prior art procedures. […] Fibrils were defined as distinct, if no visible structures could be identified in fluorescence and brightfield microscopy.

A short description of data set [3]: Fluorescence microscopy of ThT-stained fibrils (µm-sized aggregates). The class given is physicochemical. As to conditions: 1 mg/mL stained with 50 µM ThT. As for the experimental part: as §1
Fluorescence microscopy: 1 µL Fibrils (1 mg mL^-1) were stained with 9 µL, 50 µM ThT. 10 µL of the stained fibrils (0.1 mg mL^-1) were placed on a microscopy glass. Fluorescence microscopy measurements were performed on a Leica DMi8 microscope with 10x air objective and equipped with a Leica MC170 HD camera with a filter setting λem = 527/30 nm upon excitation at λex = 480/40 nm) and processed with the Leica LASX software.

The test system of data set [4] is HIV-1. The note with it: for enhancement of HIV-1 infection / transduction (in words): 6.5 µM, 1.3 µM, 0.26 µM.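 On all read-outs here: TZM-bl reporter cells exposed to HIV-1 with peptide fibrils, infection read out as β-galactosidase luminescence, compared with virus alone.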
Procedure: HIV-1 Infection Assay with TZM-bl cells: The effect of peptide fibrils on HIV-1 infection was studied via a luminescence assay for β-galactosidase, which was reported by TZM-bl cells upon infection. The HIV-1 infection assay was conducted in three technical replicates and repeated in three independent experiments unless stated otherwise.
Data set [5] concerns HeLa cells. Description: Confocal laser scanning microscopy and degradation study with PA library and HeLa cells. The format is cell-based. As to conditions: 2 µg added to 20.000 HeLa cells, 30 min. How it is done:
In general, the procedure for determine whether a PA is degraded or not, is conducted by confocal laser scanning microscopy of Proteostat stained PAs which are added to Hela cells (2 µg peptide added to 20.000 cells). Microscopy is conducted at day 0 (d0, after 30 min of incubation) and at day 3 (d3, after 72 h of incubation). The number of aggregates >10 µm^2 is counted via 3D object counter in imaged in an area of 1008 µm × 1008 µm.
A PA is considered to be degradable if the number and the size of aggregates are reduced after 3 days. The efficiency is determined by the percentual degradation (aggregate number at d3 / aggregate number at d0). For the number of aggregation three technical replicates were evaluated for each sample. A large deviation represents a nonhomogeneous spatial distribution of aggregates.
Confocal laser scanning microscopy and degradation study with PA library and HeLa cells: Confocal laser scanning microscopy studies were performed for the visualization of the cell-PA interaction. HeLa cells were seeded one day prior to conducting the assay (20,000/well) in an 8-well IBIDI slide. […] The nucleus of the HeLa cells was stained with Hoechst 33342 (NucBlue™, Thermo Fisher Scientific). The peptide solution mixture was transferred to the HeLa cells and incubated for 30 min at 37°C before washing three times with PBS. […] For the evaluation of aggregate degradation, the samples were further incubated at 37°C for 3 d and analyzed without any additional washing step. […] The number of aggregates were determined by counting aggregates larger than the threshold 10 µm^2 in an area of 1008 × 1008 µm and repeated in three technical triplicates.

For KIISFK-NH2 [Pat51, KIISFK-NH2], the β-sheet amount in data set [1] was 38%. The “TEM morphology (in words)” value in data set [2] was “no fibrillar morphologies”. For the same compound, in data set [3], the “fluorescent, µm-sized aggregates (ThT staining)” value (shortened to “fluorescent, µm-sized aggregates”) was “no fluorescent, µm-sized aggregates”. Moreover, the “enhancement of HIV-1 infection / transduction (in words)” value in data set [4] is given as “not potent enhancers of HIV-1 infection”.
With GGGSSKKK-NH2 [Pat47], the β-sheet amount in data set [1] was determined as 10%. For the same compound, the “TEM morphology (in words)” value in data set [2] is “no fibrillar morphologies”. The “fluorescent, µm-sized aggregates” value in data set [3] is listed as “no fluorescent, µm-sized aggregates”. For the same compound, the “enhancement of HIV-1 infection / transduction (in words)” value in data set [4] was “not potent enhancers of HIV-1 infection”.
Compound AGGRVK-NH2 [Pat37, AGGRVK-NH2] yielded a β-sheet amount in data set [1] of 0%. Further, the “TEM morphology (in words)” value in data set [2] was “no fibrillar morphologies”. In addition, the “fluorescent, µm-sized aggregates” value in data set [3] is listed as “no fluorescent, µm-sized aggregates”. In addition, the “infectivity enhancement at 1.3 µM concentration compared to virus only infection (in words)” value in data set [4] was “cannot enhance infectivity”.
Turning to VVAAHHH-NH2 [Pat43, VVAAHHH-NH2], in data set [1], the β-sheet amount worked out at 0%. The “TEM morphology (in words)” value in data set [2] is listed as “no fibrillar morphologies”. In data set [3], the “fluorescent, µm-sized aggregates” value is given as “no fluorescent, µm-sized aggregates”. Also, the “enhancement of HIV-1 infection / transduction (in words)” value in data set [4] is given as “not potent enhancers of HIV-1 infection”.
The compound KGVPGVGK-NH2 [Pat44] had a β-sheet amount in data set [1] of 22%. In addition, the “TEM morphology (in words)” value was “fibrillar morphologies” in data set [2] and “unexpectedly forming fibrils by themselves” in data set [2] (listed as KGVPGVGK). Moreover, in data set [4], the “infectivity enhancement at 1.3 µM concentration compared to virus only infection (in words)” value was “do not enhance infectivity”.
RRWQWR-NH2 [Pat41, RRWQWR-NH2] showed a β-sheet amount in data set [1] of 0%. The “TEM morphology (in words)” value in data set [2] is “amorphous aggregates”. The “association with cellular membranes” value in data set [5] is on record as “no association with cellular membranes”. Further, the “infectivity enhancement at 1.3 µM concentration compared to virus only infection (in words)” value in data set [4] was “cannot enhance infectivity”.
In the case of ALAAGKK-NH2 [Pat39, ALAAGKK-NH2], in data set [1], the β-sheet amount came to 0%. In addition, in data set [2], the “TEM morphology (in words)” value is listed as “no fibrillar morphologies”. The “fluorescent, µm-sized aggregates” value in data set [3] is given as “no fluorescent, µm-sized aggregates”. Moreover, the “infectivity enhancement at 1.3 µM concentration compared to virus only infection (in words)” value in data set [4] is recorded as “cannot enhance infectivity”.
IIQKIK-NH2 [Pat34, IIQKIK-NH2]: the β-sheet amount in data set [1] stood at 31%. Further, in data set [2], the “TEM morphology (in words)” value is on record as “no fibrillar morphologies”. Besides, the “fluorescent, µm-sized aggregates” value in data set [3] was “no fluorescent, µm-sized aggregates”. The “enhancement of HIV-1 infection / transduction (in words)” value in data set [4] is “not potent enhancers of HIV-1 infection”.
In the case of AVAKKK-NH2 [Pat40, AVAKKK-NH2], the β-sheet amount in data set [1] is 29%. The “TEM morphology (in words)” value in data set [2] was “no fibrillar morphologies but amorphous aggregates”. In addition, the “fluorescent, µm-sized aggregates” value in data set [3] is listed as “no fluorescent, µm-sized aggregates”. In addition, in data set [4], the “infectivity enhancement at 1.3 µM concentration compared to virus only infection (in words)” value was “cannot enhance infectivity”.
Regarding `CCCCCCCCCCCCCCCC(=O)N[C@@H](CCCNC(=N)N)C(=O)N[C@@H](CCCNC(=N)N)C(=O)N[C@@H](Cc1c[nH]c2ccccc12)C(=O)N[C@@H](CCC(N)=O)C(=O)N[C@@H](Cc1c[nH]c2ccccc12)C(=O)N[C@@H](CCCNC(=N)N)C(N)=O` [Pat22, C16-RRWQWR-NH2] (Palmitoyl-RRWQWR-NH2), the β-sheet amount in data set [1] worked out at 0%. Also, the “TEM morphology (in words)” value in data set [2] is reported as “fibrillar morphologies”. Further, the “Assembly without hydrophob residue” value in data set [2] (corresponding peptide without hydrophobic moiety) is “No”. Moreover, in data set [2] (peptide amphiphile), the Assembly result is recorded as “Yes”. Besides, the “association with cellular membranes” value in data set [5] is given as “no association with cellular membranes”. Moreover, in data set [4], the “infectivity enhancement at 1.3 µM concentration compared to virus only infection (in words)” value was “does not enhance infectivity” and the “enhancement of HIV-1 infection / transduction (in words)” value is recorded as “no infectivity enhancement can be observed”. The “Infectivity enhancing N fold at 1.3 µM” value in data set [4] (relative to virus only) is 0±0 N fold.
